# Laboratory results reported in US8841425B2, “Cytotoxic agents comprising new maytansinoids” (ImmunoGen, Inc., priority 2003, dated 2014).
# Experiments:
# [1] = tested on: CD19-positive Ramos human tumor cells; assay: MTT-based cytotoxicity of huB4-DM4, Ramos cells; assay type: cell-based; conditions: MTT-based assay, FIG. 12
# Method: (§1) The cytotoxicity of huB4-DM4 toward CD19-expressing cells (Ramos) compared to a CD19-negative cell line (Colo 205) was tested using an MTT-based assay, where cell killing activity is determined by quantifying the number of viable cells that remain following treatment with conjugate. Viable cell number is determined by spectrophotometric quantitation following incubation of the cells with the vital dye MTT.
# [2] = tested on: CD19-negative cell line (Colo 205); assay: MTT-based cytotoxicity of huB4-DM4, Colo 205 cells; assay type: cell-based, human; conditions: MTT-based assay, non-target Colo 205 cells, FIG. 12
# Method: as §1
# [3] = tested on: human Ramos tumor xenografts; assay: In vivo efficacy of huB4-DM4 against Ramos xenografts in SCID mice; design: species or system mouse
# Method: The efficacy of huB-DM4 in vivo was determined using SCID mice bearing established human Ramos tumor xenografts. Ramos cells were injected subcutaneously and tumors were allowed to grow to an average size of 100 mm^3. Dosage is expressed as μg DM4 in the conjugate, which corresponds to an antibody dose of approximately 44 μg antibody per μg of DM4. Tumor volume was measured as an indication of treatment efficacy and mouse body weight was monitored to indicate toxicity due to treatment. […] Animals remain without measurable disease for about 35 days in the […] treatment group, and for more than 55 days in the two highest dose groups.
# [4] = target: T1, CD19 (Homo sapiens, UniProt P15391); assay: Binding affinity of huB4 conjugate by flow cytometry; conditions: after conjugation
# T1 sequence (P15391 20-556): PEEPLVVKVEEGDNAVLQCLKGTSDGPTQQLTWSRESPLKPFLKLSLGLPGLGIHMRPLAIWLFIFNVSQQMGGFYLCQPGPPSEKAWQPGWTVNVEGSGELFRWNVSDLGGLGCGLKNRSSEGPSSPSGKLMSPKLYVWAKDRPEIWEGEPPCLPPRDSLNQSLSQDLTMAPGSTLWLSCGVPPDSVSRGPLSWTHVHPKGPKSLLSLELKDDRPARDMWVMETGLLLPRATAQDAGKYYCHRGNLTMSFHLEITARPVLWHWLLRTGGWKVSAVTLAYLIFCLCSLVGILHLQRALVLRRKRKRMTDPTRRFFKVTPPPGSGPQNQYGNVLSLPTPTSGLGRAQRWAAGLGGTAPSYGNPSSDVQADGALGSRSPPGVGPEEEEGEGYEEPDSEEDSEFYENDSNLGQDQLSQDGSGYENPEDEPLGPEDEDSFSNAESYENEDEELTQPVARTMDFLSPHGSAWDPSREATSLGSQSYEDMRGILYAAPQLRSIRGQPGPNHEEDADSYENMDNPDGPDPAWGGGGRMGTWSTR
# Method: A solution of huB4 antibody at a concentration of 20 mg/mL was incubated for 1.5 h with an 8-fold molar excess of SSNPB [sulfosuccinimidyl 4-(5′-nitro-2′-pyridyldithio)butyrate] in 50 mM potassium phosphate buffer, pH 6.5 containing 2 mM ethylenediaminetetraacetic acid (buffer A) with 5% dimethylacetamide. The modified antibody was purified by passage through a Sephadex G25 gel filtration column equilibrated in buffer A and the concentration of the purified antibody was determined spectrophotometrically using the extinction coefficient for the antibody at 280 nm (199,560 M^−1 cm^−1). The modified antibody was diluted to 8 mg/mL with buffer A and incubated for 3 h at ambient temperature with a 1.7-fold molar excess of DM4, which was added to the reaction mixture as a stock solution in dimethylacetamide (final concentration of dimethylacetamide was 3% v/v). […] The concentration of conjugate was determined spectrophotometrically using the know extinction coefficients for antibody (ε280 nm: 199,560 M^−1 cm^−1; ε252 nm: 67,850 M^−1 cm^−1) and DM4 (ε280 nm=5,700 M^−1 cm^−1, ε252 […]=26,790 M^−1 cm^−1). […] The amount of drug associated with the antibody that was not linked covalently (free drug) was determined by HPLC analysis and was approximately 2% of the total linked drug.
substance,measurement,setting,value
"huB4-DM4: huB4 (anti-CD19) antibody modified with SSNPB and linked to DM4, average of 4.0 DM4 molecules per antibody molecule",cell killing activity toward Ramos cells,[1],potent cell killing activity
same,toxicity toward CD19-negative cells,[2],No significant toxicity
same,toxicity as judged by changes in body weight,"[3]; SCID mice, single i.v. injection, FIG. 13b",very little if any toxicity
same,tumor response,"[3]; SCID mice, single i.v. injection, doses above 50 μg/kg",complete regression of the tumors in all animals
same,time without measurable disease,"[3]; single i.v. injection, 100 mg/kg treatment group",about 35 days
same,time without measurable disease,"[3]; single i.v. injection, two highest dose groups",more than 55 days
same,anti-tumor activity,"[3]; subcutaneous Ramos tumor model, FIG. 13a",high anti-tumor activity in a dose-dependent manner
same,tumor response,"[3]; subcutaneous Ramos tumor model, doses that are non-toxic, FIG. 13a,b",Complete tumor regressions and cures
same,binding affinity compared with unmodified antibody,[4],comparable to the unmodified antibody
